Measured values from patent publication US20040219208A1, “Sustained-release medicines” (priority 2001, published 2004).

Assay: Drug concentration in plasma of rat after subcutaneous administration of microcapsule
Assay type: in vivo
Details: sc, 25 mg microcapsule of Example 1, subcutaneous at rear neck, 9 week old male SD rat, plasma from tail vein, n = 4; for concentration at 1 week: after 1 week; for concentration at 2 weeks: after 2 weeks; for concentration at 3 weeks: after 3 weeks; for concentration at 1 day: after 1 day
Protocol: 25 mg of the microcapsule obtained in Example 1 was dispersed in 0.1 mL of dispersing medium (a solution in which 5 mg of sodium carboxymethylcellulose, 1 mg of Polysorbate 80 and 50 mg of mannitol were dissolved in 1 mL of distilled water), and this was subcutaneously administered to a 9 week old male SD rat with 23G injection needle at a rear neck part. The concentrations of drugs in plasma obtained by taking from a tail vein with time after administration were measured.

concentration at 1 week | concentration at 2 weeks | concentration at 3 weeks | concentration at 1 day | Structure (SMILES)
238 ng/mL | 94 ng/mL | 4 ng/mL | 170 ng/mL | CCOc1nc2cccc(C(=O)O)c2n1Cc1ccc(-c2ccccc2-c2nnn[nH]2)cc1 [Compound B, 2-ethoxy-1-[[2′-(1H-tetrazol-5-yl)biphenyl-4-yl]methyl]benzimidazole-7-carboxylic acid]
226 ng/mL | 155 ng/mL | 30 ng/mL | 313 ng/mL | CCc1ccc(CCOc2ccc(CC3SC(=O)NC3=O)cc2)nc1 (centres unmarked) [actos]
